From patent US20150182487A1, “COMPOSITION FOR PREVENTING AND TREATING INFLAMMATORY DISEASES AND IMMUNE DISEASES, CONTAINING APO-9`-FUCOXANTHINONE AS ACTIVE INGREDIENT” (JEJU NATIONAL UNIVERSITY INDUSTRY ACADEMIC COOPERATION …, priority 2012, published 2015)

Assays:
[1] = tested on: IL-12 p40, IL-6, and TNF-α; test: ELISA of pro-inflammatory cytokine production in CpG-ODN-stimulated bone marrow-derived macrophage; assay type: cell-based, mouse; conditions: compound 5, 10, 20, 50 μM for 1 hour before CpG-ODN (1 μM), FIG. 4
Description: (§1) Bone marrow-derived dendritic cells (BMDC) and macrophage (BMDM) were obtained from a wild-type C57BL/6 mouse. To be brief, bone marrow cells were obtained by flushing a tibia and femur of the mouse with DMEM (Dulbecco's modified Eagles medium). The cells were cultured in a medium RPMI 1640 including 10% heat-inactivated FBS (Gibco, NY, U.S.A.), 50 μM of β-mercapto ethanol, and 2 mM glutamine and supplemented with 3% hybridoma cell culture supernatant J558L containing granulocyte-macrophage colony-stimulating factor (GM-CSF) for BMDCs.
Further, the obtained bone marrow cells were cultured in a DMEM including 20% heat-inactivated FBS, a 30% L929 cell culture supernatant containing a macrophage colony-stimulating factor, and 1% penicillin-streptomycin for BMDMs.
(§2) In order to check whether the Sargassum muticum extracts obtained in the present invention has an anti-inflammatory and an immunomodulatory activity, the following experiments were conducted with the Sargassum muticum extracts obtained in Example <1-1>. That is, bone marrow-derived macrophage and dendritic cells cultured as described above were seeded at 1×10^5 cells/0.5 ml in a 48-well plate. […] Supernatants were harvested 18 hour after stimulation. Amounts of IL-12 p40, IL-6, and TNF-α were measured using ELISA (BD PharMingen, CA, USA and R&D system, MN, USA). […]

[2] = tested on: IL-12 p40, IL-6, and TNF-α; test: ELISA of pro-inflammatory cytokine production in CpG-ODN-stimulated bone marrow-derived dendritic cells; assay type: cell-based, mouse; conditions: compound 5, 10, 20, 50 μM for 1 hour before CpG-ODN (1 μM), FIG. 5
Description: as §1
as §2, with “USA). At this time, a non-treated group, a group treated with the extracts only, and a group treated with CpG-ODN only without treatment with the extracts were used as a control group.” for “USA).”

ERK1/2 (ERK p44/p42) = test: Western blot of MAPK phosphorylation in CpG-ODN-stimulated macrophages; assay type: cell-based, mouse; conditions: macrophages pre-treated at 20 μM for 1 hour before CpG-ODN; FIG. 6A
Description: (§3) In order to check whether the apo-9′-fucoxanthinone compound has an effect on activities of MAPK and NF-κB that are upstream signal transduction pathways for pro-inflammatory cytokine production, a Western blot analysis was conducted as follows. That is, the macrophages were dispensed to 60-mm culture dishes at 4×10^6 cells per dish, and then cultured for 24 hours at 37° C. The cells were pre-treated with the apo-9′-fucoxanthinone compound at a concentration of 20 μM for 1 hour before treatment with CpG-ODN. The cells were collected and dissolved using a lysis buffer (PRO-PREP Lysis buffer, iNtRON Biotechnology). Protein samples were electrophoresed in 10%-SDS PAGE, and then electrophoresed in a polyvinylidene fluoride membrane, and then treated and reacted with phospho-p44/42 (P-ERK p44/p42), phospho-p38 (P-p38), p38 MAPK, phospho-SAPK/JNK (P-JNK), phospho-IκBα, and IκBα (Cell Signaling Technology, MA, USA) as 1/1000 diluted primary antibodies. Thereafter, the membrane was washed and treated and reacted with horseradish peroxidase-linked anti-rabbit IgG (Cell Signaling Technology). Then, a signal was checked using a WEST-ZOL plus western blot detection system (iNtRON Biotechnology).

IκBα = test: Western blot of degradation and phosphorylation of IκBα in CpG-ODN-stimulated macrophages; assay type: cell-based, mouse; conditions: macrophages pre-treated at 20 μM for 1 hour before CpG-ODN; FIG. 6B
Description: as §3

AP-1 = AP-1 reporter luciferase assay in TLR9-transfected HEK293T cells stimulated with CpG-ODN; assay type: cell-based; conditions: HEK293T cells transfected with murine TLR9-expressing plasmid; pre-treated 1 hour before CpG DNA (1 μM), 18 hour; FIG. 7
Description: It is known that activation of an MAPK signaling pathway activates a transcriptional factor AP-1, thereby increasing a DNA binding activity of AP-1 and expression of an AP-1-dependent gene. […] Firstly, HEK239T cells were plated in a 24-well plate and cultured overnight. Then, HEK293T cells were transfected with pcDNA3 (empty vector) or pcDNA3-mTLR9 that expresses murine TLR9, with an AP-1 reporter gene and pRLnull (Promega, WI, USA) using a Fugene 6 (Roche, UN, USA). Cells were then further incubated for 24 hour, and then pre-treated with the apo-9′-fucoxanthinone compound at each concentration as described in the above Examples for 1 hour before stimulation with CpG DNA (1 μM). After further incubation for 18 hour, the cells were lysed with a passive lysis buffer (Promega), and then analyzed using a dual luciferase reporter assay system (Promega). All of the experiments were repeated three times, and the results thereof were expressed in the fold increase.

NLRP3 inflammasome = biological target: T1, NLRP3 inflammasome (Mus musculus, UniProt Q8R4B8); test: ELISA of IL-1β production induced by ATP in LPS primed BMDMs; assay type: cell-based; conditions: BMDMs primed with LPS 10 ng/ml 18 hours; compound 6.25, 12.5, 25, 50 μM 1 hour; ATP 5 mM 2 hours; FIG. 9 upper graph
T1 construct: checked a degree of IL-1β production induced by ATP in LPS primed BMDMs using ELISA; endogenous in cells; host or cells: bone marrow-derived macrophages (BMDM) from wild-type C57BL/6 mouse, LPS-primed and ATP-stimulated
Description: When LPS primed bone marrow-derived macrophages are treated with ATP, NLPR3 inflammasome is activated, and, thus, IL-1β is secreted. Therefore, in order to check whether the apo-9′-fucoxanthinone compound has an effect of inhibiting the NLRP3 inflammasome, the inventors of the present invention checked a degree of IL-1β production induced by ATP in LPS primed BMDMs using ELISA To do so, the bone marrow-derived macrophages cultured in the same manner as Example 2 were dispensed at 1×10^5 cells/0.5 ml in a 48-well plate, and these cells were treated with LPS at a concentration of 10 ng/ml for 18 hours. Then, the cells were treated with the apo-9′-fucoxanthinone compound at each concentration (0, 6.25, 12.5, 25, and 50 μM) for 1 hour. At 2 hours after treatment with ATP at a concentration of 5 mM, a cell culture medium was obtained and an expression amount of IL-1β was measured using ELISA (R&D system, MN, USA). Further, as a positive control group, a group treated with 10 μM parthenolide (described as “part” in the drawings) known as an NLRP3 inflammasome inhibitor was used.

[3] = tested on: bone marrow-derived macrophages; test: MTT assay of pyroptotic cell death of bone marrow-derived macrophages treated with LPS and ATP; assay type: cell-based, mouse; conditions: bone marrow-derived macrophages treated with both LPS and ATP; compound 6.25-50 μM; FIG. 9 lower graph
Description: When LPS primed bone marrow-derived macrophages are treated with ATP, NLPR3 inflammasome is activated, and, thus, IL-1β is secreted. Therefore, in order to check whether the apo-9′-fucoxanthinone compound has an effect of inhibiting the NLRP3 inflammasome, the inventors of the present invention checked a degree of IL-1β production induced by ATP in LPS primed BMDMs using ELISA To do so, the bone marrow-derived macrophages cultured in the same manner as Example 2 were dispensed at 1×10^5 cells/0.5 ml in a 48-well plate, and these cells were treated with LPS at a concentration of 10 ng/ml for 18 hours. Then, the cells were treated with the apo-9′-fucoxanthinone compound at each concentration (0, 6.25, 12.5, 25, and 50 μM) for 1 hour. At 2 hours after treatment with ATP at a concentration of 5 mM, a cell culture medium was obtained and an expression amount of IL-1β was measured using ELISA (R&D system, MN, USA). […]
That is, the cells treated as described above were treated with 0.2 mg of an MTT reagent and cultured at a temperature of 37° C. for 4 hours. After culture, the cells were collected and formazan crystals in each well were dissolved in 250 μl of DMSO, and then, an absorbance at 540 nm was measured to measure cell viability.

T1 sequence (Q8R4B8 whole entry): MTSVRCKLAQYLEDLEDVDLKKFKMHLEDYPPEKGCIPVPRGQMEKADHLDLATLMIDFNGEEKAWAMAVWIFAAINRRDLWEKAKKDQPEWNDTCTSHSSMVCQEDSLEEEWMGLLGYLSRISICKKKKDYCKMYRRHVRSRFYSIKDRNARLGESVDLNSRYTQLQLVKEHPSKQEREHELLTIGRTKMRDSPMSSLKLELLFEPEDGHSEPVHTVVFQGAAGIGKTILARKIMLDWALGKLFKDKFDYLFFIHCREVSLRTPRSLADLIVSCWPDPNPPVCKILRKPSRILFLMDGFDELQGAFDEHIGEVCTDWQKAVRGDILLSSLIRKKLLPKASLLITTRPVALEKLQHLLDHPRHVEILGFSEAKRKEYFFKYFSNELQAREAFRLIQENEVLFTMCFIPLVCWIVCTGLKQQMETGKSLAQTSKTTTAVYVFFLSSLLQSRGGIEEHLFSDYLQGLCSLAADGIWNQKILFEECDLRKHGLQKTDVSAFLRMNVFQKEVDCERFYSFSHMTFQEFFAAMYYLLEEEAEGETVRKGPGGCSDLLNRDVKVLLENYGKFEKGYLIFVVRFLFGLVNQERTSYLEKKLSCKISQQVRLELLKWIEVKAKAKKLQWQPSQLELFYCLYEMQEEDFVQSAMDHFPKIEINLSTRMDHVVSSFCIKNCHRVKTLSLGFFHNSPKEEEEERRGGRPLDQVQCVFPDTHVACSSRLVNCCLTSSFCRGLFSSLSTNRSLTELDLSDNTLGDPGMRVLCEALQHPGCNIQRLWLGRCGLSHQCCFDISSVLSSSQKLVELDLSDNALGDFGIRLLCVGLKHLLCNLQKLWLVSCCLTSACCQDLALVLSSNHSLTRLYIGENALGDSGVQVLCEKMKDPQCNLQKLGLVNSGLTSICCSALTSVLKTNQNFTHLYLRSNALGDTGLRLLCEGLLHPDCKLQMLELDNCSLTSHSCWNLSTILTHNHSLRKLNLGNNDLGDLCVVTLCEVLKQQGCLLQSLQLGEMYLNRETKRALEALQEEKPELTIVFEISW

## CC(=O)C=C=C1C(C)(C)C[C@H](OC(C)=O)C[C@@]1(C)O [apo-9′-fucoxanthinone]
[1]
  pro-inflammatory cytokine production (IL-12 p40, IL-6, TNF-α): effectively inhibiting
[2]
  pro-inflammatory cytokine production (IL-12 p40, IL-6, TNF-α): effectively inhibiting
ERK1/2 (ERK p44/p42)
  phosphorylation of ERK1/2 (ERK p44/p42): strongly inhibited
IκBα
  degradation and phosphorylation of IκBα: did not greatly affect
AP-1
  AP-1-dependent luciferase activity: decreased in a dose-dependent manner
NLRP3 inflammasome
  production of IL-1β: effectively inhibited in a dose-dependent manner
[3]
  pyroptotic cell death (cell viability, MTT): inhibiting pyroptotic cell death
